Consider 1 compound from US11096952B2, “Chemicals and methods to prevent and treat TGF-beta mediated activation of fibroblasts to reduce and treat cancer and fibrosis” (Board of Supervisors of Louisiana State University and …, priority 2016, dated 2021).

In one data set the test system is WPMY-1 cells. Description: Viability / metabolic activity assay on WPMY-1 cells. Here is the method: Metabolically viable cells (indicated by bar; left y-axis) are indicated by fluorescent intensity (560/590 nm).
Cardiac glycosides have been shown previously to inhibit cell growth in a variety of cell types, in order to determine whether cardiac glycosides inhibited TGE-β-induced fibronectin expression by affecting metabolic activity, viability assays were performed on WPMY-1 cells over 48 hours in 1% FBS DMEM.

In a further data set the test system is EGR1 luciferase reporter. In words: EGR1 luciferase reporter in WPMY-1 cells. Type of data set: cell-based, human. The conditions noted are these: WPMY-1, digoxin 60 or 120 nM, 5 ng/ml TGF-β, 24 hours. Here is the method: A) WPMY-1 human fibroblast cells transfected with SMAD (left) or EGR1 (right) luciferase reporter were treated with or without 5 ng/ml TGF-β in the presence or absence of Digoxin (60 or 120 nM) for 24 hours. Relative luciferase activity is shown. *P<0.05, **P<0.01, ***P<0.001 are significant differences compared to values set to 1 (n=3, Values are ±SEM). B) J2 mouse fibroblast cells were treated with or without 5 ng/ml TGF-β in the presence or absence of increasing concentrations (30, 60, 120, or 240 nM) of digoxin for 24 hours. Representative blot is shown with two exposures of fibronectin to account for strong signal intensity (n=3).
Finally, J2 mouse fibroblast cells were treated with or without 5 ng/ml TGF-β in the presence or absence of increasing concentrations (30, 60, 120, or 240 nM) of digoxin for 24 hours.
For orientation: Reporter assays use an easily measured gene product as a stand-in for the process of interest.

In data set [1] the test system is TGF-β-induced fibronectin expression. In words: Western blot of TGF-β-induced fibronectin expression in WPMY-1 fibroblasts. It is filed as cell-based, human. The conditions noted are these: WPMY-1, 5 ng/ml TGF-β, digoxin 30, 60, 120, 240 nM, 24 hours. Here is the method:
(§1) Inhibitors of CAF Differentiation. A. WPMY-1 cells were plated into each well of 4-chamber slice (for IF), or (C) in a 24 well plate (for western blot analysis). After cell attachment, vehicle or 5 ng/ml TGF-β was added into each well and incubated for 24 h in a 37° C. in a humidified incubator containing 5% CO2. For fluorescence detection (A), cells were fixed and stained with antibody detecting fibronectin and/or stained with DAPI to detect the nuclei. Protein was extracted with boiling Lamaelli buffer for WB (C) and blots were probed with anti-fibronectin or anti-tubulin antibodies. Fibronectin fluorescence (D and E) was measured in the presence or absence of TGF-β in 8 well replicates as follows. Cells were conditioned in serum-free DMEM for 48 hr prior to the addition of TGF-β. Images were acquired using a Cellomics platform with a mask shown in the schematic of (B). The mean of the total fluorescence intensity in each well was calculated from 300 cells per image field and up to 15 fields from each well for fibronectin. The fold change in fibronectin expression per acquired image (nuclei) is shown (Mean+/−SD).
Panel A1 is the control, Panel A2 is the TGF-β treated wells and Panel A3 is TGF-β plus PsA at 5 micromolar. Images were captured using the Cellomics imaging system.
Representative blots are shown with two exposures of fibronectin to account for strong signal intensity. n=3.
FIGS. 9A-9B: Increases in intracellular Ca^2+ prevent TGF-β-induced fibronectin expression. (A) WPMY-1 fibroblasts were treated with 2.5 μM thapsigargin±5 ng/ml TGF-β for 24 hours. (B) WPMY-1 fibroblasts were treated with 2.5-10 μM 3′,4′-dichlorobenzamil hydrochloride (DCB)±5 ng/ml TGF-β for 24 hours. Cell lysates were analyzed by western blot for fibronectin expression.
Because of the observed low nanomolar effective concentration of the cardiac glycosides, the inventors hypothesized that the cardiac glycosides may be acting by binding to their high affinity target, the Na^+/K^+ ATPase, and that action through the ATPase is the mechanism by which the cardiac glycosides are able to block TGF-β-induced fibronectin expression. It is well documented that inhibition of the Na^+/K^+ ATPase by digoxin leads to increases in intracellular Ca^2+ by preventing Ca^2+ efflux through the Na^+/Ca^2+ exchanger. In order to determine if increased intracellular Ca^2+ is sufficient to prevent TGF-β-induced fibronectin expression, the inventors utilized two compounds that increase intracellular Ca^2+ concentrations. 3′,4′-dichlorobenzamil hydrochloride (DCB) inhibits the Na^+/Ca^2+ exchanger, Na^+ transport, and sarcoplasmic reticulum Ca^2+ release channels. Thapsigargin inhibits the endoplasmic reticulum Ca^+ ATPase, preventing storage of Ca^2+ in the endoplasmic reticulurn, causing an accumulation in the cytoplasm. Cells were treated with 2.5-10 μM of DCB or thapsigargin±TGF-β for 24 hours.

Data set [2] relates to TGF-β-induced fibronectin. Description: High content imaging (Cellomics) screen for inhibitors of fibronectin induction by TGF-beta in WPMY-1 cells. It is filed as cell-based, human. The conditions noted are these: WPMY-1, 0-100 uM, TGF-β 24 hour. Here is the method: as §1, with “The fold change in fibronectin expression per acquired image (nuclei) is shown (Mean+/−SD).” left out
FIGS. 4A-4H: Dose response for identified hits. As shown in the four panels of FIG. 4A, fibronectin fluorescence was measured from images acquired following a Cellomics scan using WPMY-1 cells with concentrations of hits over a range of 0-100 uM. […] Results were expressed as percent inhibition caused by cells treated with TGF-β alone and without testing compound, which was considered as 100%. […]
FIGS. 14-15 show Table I—Prestwick Library and Table II—NIH Library chemicals respectively. […] A “hit” was defined as a compound causing at least 50% reduction of “Mean_RingTotal Intensity”, which is the fluorescence intensity within the defined ring (see FIG. 2) surrounding nucleus of each cell, summed for 300 cells per image and 15 fields per image. The solvent, 0.1% Dimethyl Sulfoxide (DMSO), with and without TGF-beta served as an internal control on each plate to normalize day-to-day and plate-to-plate variation with DMSO alone as low fluorescence (0%) and TGF-β treated as maximal fluorescence (100%). […]

Turning to `C[C@H]1O[C@@H](O[C@H]2[C@@H](O)C[C@H](O[C@H]3[C@@H](O)C[C@H](O[C@H]4CC[C@@]5(C)[C@H](CC[C@@H]6[C@@H]5C[C@@H](O)[C@]5(C)[C@@H](C7=CC(=O)OC7)CC[C@]65O)C4)O[C@@H]3C)O[C@@H]2C)C[C@H](O)[C@@H]1O` [digoxin], the “cell viability / metabolic activity” value with WPMY-1 cells was “no effect on cell viability”. Besides, the “EGR-1 dependent promoter (luciferase) activity” value in the data set on EGR1 luciferase reporter is reported as “lowers the activation of promoter dependent on EGR-1”. In addition, the “TGF-β-induced fibronectin expression (western blot)” value in data set [1] is reported as “prevents TGF-β-induced fibronectin expression in a dose dependent manner”. Besides, the “IC50 / potency for inhibition of TGF-β-induced fibronectin (dose response)” value in data set [2] was “very low IC50”.
